Where “and” joins values, the source holds several entries; their conditions need not be identical. Identical values can stand only once.
Legend:
Assay in all cases: biochemical
Format in all cases: biochemical
[1] = target: T1, EfBChE (butyrylcholinesterase from equine serum) (Equus caballus, UniProt P81908); conditions: for SI, selectivity index based on IC50 values (EeAChE vs EfBChE): ratio of EfBChE to EeAChE IC50 values; for fold better than donepezil against EfBChE: ratio of IC50 values; for IC50: with standard error, 25 °C, 10 min preincubation, read-out: IC50, inhibition of EfBChE
T1 construct: EfBChE from equine serum (Equus ferus); from tissue; host or cells: equine serum
Experimental: (§1) Experiments were performed as previously described. […] All assays were performed in duplicate or triplicate.

[2] = target: EeAChE (acetylcholinesterase from Electrophorus electricus) (Electrophorus electricus, UniProt O42275); conditions: for IC50: with standard error, 25 °C, 10 min preincubation, read-out: IC50, inhibition of EeAChE; for fold enhanced potency against EeAChE compared to donepezil: ratio of IC50 values
Experimental: as §1

BACE1 = target: T2, BACE1 (Homo sapiens, UniProt P56817); conditions: for IC50: fluorescence after 2 h, read-out: IC50, inhibition of BACE1
T2 construct: purchased Millipore-Sigma CS0010-1KT
Experimental: Inhibition of BACE1 was tested using the commercial kit (cat CS0010-1KT, Millipore-Sigma, St. Louis, MO, USA) following the directions accompanying the kit. […] Dilutions were originally performed in DMSO, and 2 μL added to the reaction in order to account for any moderation of activity from the vehicle. Fluorescent measurements were taken after 2 h. The resulting rates were normalized to the reaction without inhibitor. In order to get an appropriate sigmoidal fit, two additional points (400 and 1000 μM) were added to the data when needed.

[3] = target: HsAChE (acetylcholinesterase from Homo sapiens) (Homo sapiens, UniProt P22303)
Experimental: as §1

T1 sequence (P81908 whole entry): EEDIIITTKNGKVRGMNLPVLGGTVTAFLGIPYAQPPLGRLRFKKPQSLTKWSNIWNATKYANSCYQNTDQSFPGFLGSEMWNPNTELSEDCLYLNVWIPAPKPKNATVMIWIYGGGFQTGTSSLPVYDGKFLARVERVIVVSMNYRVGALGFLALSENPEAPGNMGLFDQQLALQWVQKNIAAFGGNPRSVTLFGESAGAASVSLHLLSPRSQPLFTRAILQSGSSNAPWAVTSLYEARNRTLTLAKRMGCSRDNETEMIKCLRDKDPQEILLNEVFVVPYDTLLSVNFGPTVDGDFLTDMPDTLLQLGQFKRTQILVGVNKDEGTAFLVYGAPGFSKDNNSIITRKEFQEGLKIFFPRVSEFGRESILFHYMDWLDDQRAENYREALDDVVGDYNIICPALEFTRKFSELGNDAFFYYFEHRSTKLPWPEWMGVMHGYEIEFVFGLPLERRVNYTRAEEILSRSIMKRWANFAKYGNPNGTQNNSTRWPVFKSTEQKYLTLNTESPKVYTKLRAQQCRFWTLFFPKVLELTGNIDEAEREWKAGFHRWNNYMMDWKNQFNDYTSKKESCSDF
EeAChE (acetylcholinesterase from Electrophorus electricus), sequence (O42275 24-633): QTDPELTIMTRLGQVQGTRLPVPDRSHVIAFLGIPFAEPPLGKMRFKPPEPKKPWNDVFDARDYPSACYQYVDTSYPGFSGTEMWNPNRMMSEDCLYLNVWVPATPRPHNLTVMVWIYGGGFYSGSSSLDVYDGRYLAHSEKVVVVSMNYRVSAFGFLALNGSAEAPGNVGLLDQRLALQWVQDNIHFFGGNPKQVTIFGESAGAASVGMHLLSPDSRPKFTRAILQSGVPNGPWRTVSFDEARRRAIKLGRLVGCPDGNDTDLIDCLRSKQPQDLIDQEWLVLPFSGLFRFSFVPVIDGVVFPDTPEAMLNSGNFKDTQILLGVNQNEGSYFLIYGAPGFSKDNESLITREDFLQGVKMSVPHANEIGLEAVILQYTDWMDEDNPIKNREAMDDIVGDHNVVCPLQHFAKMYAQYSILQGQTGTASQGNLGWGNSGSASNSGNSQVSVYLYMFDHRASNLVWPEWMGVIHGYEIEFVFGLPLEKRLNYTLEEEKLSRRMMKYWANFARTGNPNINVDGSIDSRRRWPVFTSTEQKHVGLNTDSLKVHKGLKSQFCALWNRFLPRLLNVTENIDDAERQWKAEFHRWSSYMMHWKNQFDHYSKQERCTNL
HsAChE (acetylcholinesterase from Homo sapiens), sequence (P22303 32-614): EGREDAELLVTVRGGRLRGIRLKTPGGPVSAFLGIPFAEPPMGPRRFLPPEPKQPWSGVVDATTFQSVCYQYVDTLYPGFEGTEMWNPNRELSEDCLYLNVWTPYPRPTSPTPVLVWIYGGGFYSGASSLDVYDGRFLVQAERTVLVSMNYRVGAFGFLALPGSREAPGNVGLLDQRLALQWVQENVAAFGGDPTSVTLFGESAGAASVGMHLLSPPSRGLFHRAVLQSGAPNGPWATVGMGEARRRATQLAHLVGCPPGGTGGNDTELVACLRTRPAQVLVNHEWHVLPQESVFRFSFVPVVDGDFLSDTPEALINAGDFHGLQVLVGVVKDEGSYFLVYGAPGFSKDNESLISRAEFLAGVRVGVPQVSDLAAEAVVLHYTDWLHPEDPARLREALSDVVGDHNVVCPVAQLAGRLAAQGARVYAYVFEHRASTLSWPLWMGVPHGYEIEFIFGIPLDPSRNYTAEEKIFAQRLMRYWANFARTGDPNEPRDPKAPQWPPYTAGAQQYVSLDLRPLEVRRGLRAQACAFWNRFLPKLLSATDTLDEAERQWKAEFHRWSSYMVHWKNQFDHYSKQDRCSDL
T2 sequence (P56817 46-457): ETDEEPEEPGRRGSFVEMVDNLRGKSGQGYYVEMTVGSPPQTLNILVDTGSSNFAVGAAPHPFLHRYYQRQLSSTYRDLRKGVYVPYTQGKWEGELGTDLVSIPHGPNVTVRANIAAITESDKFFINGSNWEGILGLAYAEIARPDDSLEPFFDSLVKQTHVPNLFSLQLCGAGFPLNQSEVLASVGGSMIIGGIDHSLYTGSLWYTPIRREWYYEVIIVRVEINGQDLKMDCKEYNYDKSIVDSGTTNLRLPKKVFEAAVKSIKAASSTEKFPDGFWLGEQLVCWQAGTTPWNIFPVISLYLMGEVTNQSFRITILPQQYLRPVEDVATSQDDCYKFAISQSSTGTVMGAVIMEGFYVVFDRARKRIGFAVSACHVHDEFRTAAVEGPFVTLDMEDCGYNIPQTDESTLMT

Row | SMILES | SI, selectivity index based on IC50 values (EeAChE vs EfBChE) [1] | fold better than donepezil against EfBChE [1] [fold] | IC50 [1] | IC50 [2] | IC50 (BACE1) [nM] | SI, selectivity index of EeAChE versus HsAChE, based on IC50 values [3] | IC50 ([3]; 37 °C, read-out: IC50, inhibition of HsAChE) [nM] | fold better inhibition of HsAChE than donepezil ([3]; ratio of IC50 values) [fold] | fold enhanced potency against EeAChE compared to donepezil [2] | BACE1 IC50 within fold of the IC50 of donepezil (BACE1) [fold] | fold more selective for EfBChE (over EeAChE) [1] [fold]
1 | COc1cc2c(cc1OCCCN)C(=O)C(CC1CCN(Cc3ccccc3)CC1)C2 (centres unmarked) [Compound 8a, 6-[(3-Aminopropyl)oxy]-2-[(1-benzylpiperidin-4-yl)methyl]-5-methoxy-2,3-dihydroinden-1-one] | 11 | 4 | 573 nM and 570 nM | 54 ± 3 nM | 95000 ± 12000 |  |  |  |  |  | 
2 | COc1cc2c(cc1OCc1ccc(Br)cc1F)C(=O)C(CC1CCN(Cc3ccccc3)CC1)C2 (centres unmarked) [Compound 8t] | 6.9 |  | 372 nM and 370 nM | 54 ± 7 nM | 169000 ± 2000 | 30 | 1.8 ± 0.6 | 18 | 2.2 fold |  | 
3 | COc1ccc(COc2cc3c(cc2OC)CC(CC2CCN(Cc4ccccc4)CC2)C3=O)cc1 (centres unmarked) [Compound 8j] | 5.2 |  | 668 nM and 670 nM | 125 nM and 130 nM |  |  |  |  |  |  | 
4 | COc1cc2c(cc1OCc1ccc(C)cc1)C(=O)C(CC1CCN(Cc3ccccc3)CC1)C2 (centres unmarked) [Compound 8i] | 4.3 |  | 997 nM and 1000 nM | 228 nM and 230 nM | 58000 ± 2000 |  |  |  |  |  | 
5 | COc1cc2c(cc1OCc1ccc(Br)cc1)C(=O)C(CC1CCN(Cc3ccccc3)CC1)C2 (centres unmarked) [Compound 8l] | 10 |  | 720 ± 100 nM | 71 ± 15 nM | 3400 ± 100 |  |  |  |  | ≤ 5 | 
6 | COc1cc2c(cc1OCc1ccccc1)C(=O)C(CC1CCN(Cc3ccccc3)CC1)C2 (centres unmarked) [Compound 8h] | 5.4 | 3 | 704 nM and 700 nM | 131 nM and 130 nM | 58000 ± 1000 |  |  |  |  |  | 
7 | COc1cc2c(cc1OCc1ccc([N+](=O)[O-])cc1)C(=O)C(CC1CCN(Cc3ccccc3)CC1)C2 (centres unmarked) [Compound 8k] | 3.5 |  | 462 nM and 460 nM | 126 nM and 130 nM |  |  |  |  |  |  | 
8 | COc1cc2c(cc1OCCBr)C(=O)C(CC1CCN(Cc3ccccc3)CC1)C2 (centres unmarked) [Compound 8e, 2-[(1-Benzylpiperidin-4-yl)methyl]-6-[(bromoethyl)oxy]-5-methoxy-2,3-dihydroinden-1-one] | 30 | 2 | 1290 nM and 1300 nM | 44 ± 3 nM | 7900 ± 900 |  |  |  | 3 fold | ≤ 5 | 
9 | COc1cc2c(cc1OCCN)C(=O)C(CC1CCN(Cc3ccccc3)CC1)C2 (centres unmarked) [Compound 8b, 6-[(3-Aminoethyl)oxy]-2-[(1-benzylpiperidin-4-yl)methyl]-5-methoxy-2,3-dihydroinden-1-one] | 23 | 4 | 478 nM and 480 nM | 21 ± 3 nM | ~100000 |  |  |  | 6 fold |  | 
10 | COc1cc2c(cc1OCc1ccccc1C(F)(F)F)C(=O)C(CC1CCN(Cc3ccccc3)CC1)C2 (centres unmarked) [Compound 8p] | 7.8 | 8 | 254 nM and 250 nM | 32 ± 10 nM | 34000 ± 9000 |  |  |  | 4 fold |  | 
11 | COc1cc2c(cc1OCCCCCCCCCCCCBr)C(=O)C(CC1CCN(Cc3ccccc3)CC1)C2 (centres unmarked) [Compound 8g, 2-[(1-Benzylpiperidin-4-yl)methyl]-6-[(bromododecyl)oxy]-5-methoxy-2,3-dihydroinden-1-one] | 6.6 |  | 5150 nM and 5200 nM | 789 nM and 790 nM |  |  |  |  |  |  | 
12 | COc1cc2c(cc1OCc1ccccc1F)C(=O)C(CC1CCN(Cc3ccccc3)CC1)C2 (centres unmarked) [Compound 8o] | 6.3 |  | 764 nM and 760 nM | 124 nM and 120 nM | 21000 ± 4000 |  |  |  |  |  | 
13 | COc1cc2c(cc1OCc1cccc(F)c1)C(=O)C(CC1CCN(Cc3ccccc3)CC1)C2 (centres unmarked) [Compound 8n] | 6.0 |  | 959 nM and 960 nM | 156 nM and 160 nM | 12000 ± 3000 |  |  |  |  |  | 
14 | COc1cc2c(cc1OCc1ccc(F)cc1)C(=O)C(CC1CCN(Cc3ccccc3)CC1)C2 (centres unmarked) [Compound 8m] | 7.0 |  | 570 ± 100 nM | 81 ± 5 nM | ~100000 |  |  |  |  |  | 
15 | COc1cc2c(cc1OCCCCBr)C(=O)C(CC1CCN(Cc3ccccc3)CC1)C2 (centres unmarked) [Compound 8f, 2-[(1-Benzylpiperidin-4-yl)methyl]-6-[(bromobutyl)oxy]-5-methoxy-2,3-dihydroinden-1-one] | 21 |  | 1280 nM and 1300 nM | 61 ± 7 nM | 7900 ± 2400 |  |  |  |  | ≤ 5 | 
16 | COc1cc2c(cc1OCc1cc(F)ccc1F)C(=O)C(CC1CCN(Cc3ccccc3)CC1)C2 (centres unmarked) [Compound 8r] | 6.7 | 3 | 601 nM and 600 nM | 90 ± 9 nM | ~100000 |  |  |  |  |  | 
17 | COc1cc2c(cc1O)C(=O)C(CC1CCN(Cc3ccccc3)CC1)C2 (centres unmarked) [Compound 7, 2-[(1-Benzylpiperidin-4-yl)methyl]-6-hydroxy-5-methoxy-2,3-dihydroinden-1-one] | 11 |  | 4300 ± 400 nM | 409 nM and 410 nM |  |  |  |  |  |  | 
18 | COc1cc2c(cc1OCc1c(F)c(F)c(F)c(F)c1F)C(=O)C(CC1CCN(Cc3ccccc3)CC1)C2 (centres unmarked) [Compound 8v] |  | 18 | 114 nM and 110 nM | 172 nM and 170 nM | 29000 ± 6000 |  |  |  |  |  | 1.5
19 | COc1cc2c(cc1OCc1c(F)cc(F)cc1F)C(=O)C(CC1CCN(Cc3ccccc3)CC1)C2 (centres unmarked) [Compound 8u] | 7.4 | 10 | 199 nM and 200 nM | 27 ± 4 nM | 91000 ± 14000 |  |  |  | five |  | 
20 | COc1cc2c(cc1OCc1c(F)cccc1F)C(=O)C(CC1CCN(Cc3ccccc3)CC1)C2 (centres unmarked) [Compound 8s] | 28 | 5 | 438 nM and 440 nM | 16 ± 1 nM | 30000 ± 8000 |  |  |  | eight |  | 
21 | CCCOc1cc2c(cc1OC)CC(CC1CCN(Cc3ccccc3)CC1)C2=O (centres unmarked) [Compound 8c, 2-[(1-Benzylpiperidin-4-yl)methyl]-5-methoxy-6-propoxy-2,3-dihydroinden-1-one] | 15 |  | 2050 nM and 2100 nM | 140 ± 20 nM | 6100 ± 100 |  |  |  |  | ≤ 5 | 
22 | COc1cc2c(cc1OCc1ccc(F)cc1F)C(=O)C(CC1CCN(Cc3ccccc3)CC1)C2 (centres unmarked) [Compound 8q] | 4.4 | 4 | 483 nM and 480 nM | 113 nM and 110 nM | 37000 ± 5000 |  |  |  |  |  | 
23 | COc1cc2c(cc1OCCCl)C(=O)C(CC1CCN(Cc3ccccc3)CC1)C2 (centres unmarked) [Compound 8d, 2-[(1-Benzylpiperidin-4-yl)methyl]-6-[(chloroethyl)oxy]-5-methoxy-2,3-dihydroinden-1-one] | 22 | 2 | 1300 ± 100 nM | 59 ± 4 nM | ~100000 |  |  |  | 2 fold |  | 

— article PMC6321525 (Molecules, 2018)
